Legend:
Format in all cases: functional
[1] = tested on: Raji; assay: Cell cycle arrest in human Raji cells assessed as accumulation in S phase at 1 ug/mL
[2] = tested on: Raji; assay: Antitumor activity against human Raji cells assessed as DNA synthesis at 0.5 ug/mL by [3H]thymidine incorporation assay relative to control
[3] = tested on: Raji; assay: Cell cycle arrest in human Raji cells assessed as accumulation in S phase at 0.1 ug/mL
[4] = tested on: Raji; assay: Antitumor activity against human Raji cells assessed as DNA synthesis at 0.1 ug/mL by [3H]thymidine incorporation assay relative to control
[5] = tested on: Raji; assay: Antitumor activity against human Raji cells assessed as DNA synthesis at 1 ug/mL by [3H]thymidine incorporation assay relative to control
[6] = tested on: Raji; assay: Cell cycle arrest in human Raji cells assessed as accumulation in S phase at 0.5 ug/mL

| Structure (SMILES) | Activity [1] | Activity [2] | Activity [3] | Activity [4] | Activity [5] | Activity [6] |
| --- | --- | --- | --- | --- | --- | --- |
| CO[C@H]1[C@@H](O)[C@H](O[C@H]2[C@@H](OC)C[C@H](O[C@H]3[C@@H](OC)C[C@H](O[C@H]4[C@@H](OC)C[C@H](O[C@H]5CC[C@@]6(C)C(=CC[C@]7(O)[C@@H]6C[C@@H](OC(=O)/C=C/c6ccccc6)[C@@]6(C)[C@]7(O)CC[C@@]6(O)C(C)=O)C5)O[C@@H]4C)O[C@@H]3C)O[C@@H]2C)O[C@H](C)[C@H]1O[C@@H]1O[C@H](CO)[C@@H](O)[C@H](O)[C@H]1O | 4% | 21% | 22% | 41% | 14% | 11% |
| CO[C@H]1[C@@H](O)[C@H](O[C@H]2[C@@H](OC)C[C@H](O[C@H]3[C@@H](OC)C[C@H](O[C@H]4[C@@H](OC)C[C@H](O[C@H]5CC[C@@]6(C)C(=CC[C@]7(O)[C@@H]6C[C@@H](OC(=O)c6ccccc6)[C@@]6(C)[C@]7(O)CC[C@@]6(O)[C@H](C)OC(=O)/C=C/c6ccccc6)C5)O[C@@H]4C)O[C@@H]3C)O[C@@H]2C)O[C@H](C)[C@H]1O[C@@H]1O[C@H](CO)[C@@H](O)[C@H](O)[C@H]1O | 4% | 14% | 4% | 15% | 14% | 6% |
| CO[C@@H]1[C@@H](O)[C@H](O[C@H]2[C@@H](OC)C[C@H](O[C@H]3[C@@H](OC)C[C@H](O[C@H]4[C@@H](OC)C[C@H](O[C@H]5CC[C@@]6(C)C(=CC[C@]7(O)[C@@H]6C[C@@H](OC(=O)c6ccccc6)[C@@]6(C)[C@]7(O)CC[C@@]6(O)[C@H](C)OC(=O)/C=C/c6ccccc6)C5)O[C@@H]4C)O[C@@H]3C)O[C@@H]2C)O[C@H](C)[C@H]1O[C@@H]1O[C@H](CO)[C@@H](O)[C@H](O)[C@H]1O | 5% | 14% | 5% | 13% | 16% | 4% |
| COC1C[C@H](O[C@H]2[C@@H](OC)C[C@H](O[C@H]3[C@@H](OC)C[C@H](O[C@H]4CC[C@@]5(C)C(=CC[C@]6(O)[C@@H]5C[C@@H](OC(C)=O)[C@@]5(C)[C@]6(O)CC[C@@]5(O)C(C)=O)C4)O[C@@H]3C)O[C@@H]2C)O[C@H](C)[C@H]1O[C@@H]1O[C@H](C)[C@@H](O[C@@H]2O[C@H](CO)[C@@H](O)[C@H](O)[C@H]2O)[C@@H](OC)[C@H]1O (single isomer, unassigned) | 26% | 87% | 30% | 98% | 69% | 28% |
| COC1C[C@H](O[C@H]2[C@@H](OC)C[C@H](O[C@H]3[C@@H](OC)C[C@H](O[C@H]4CC[C@@]5(C)C(=CC[C@]6(O)[C@@H]5C[C@@H](OC(C)=O)[C@@]5(C)[C@]6(O)CC[C@@]5(O)[C@H](C)O)C4)O[C@@H]3C)O[C@@H]2C)O[C@H](C)[C@H]1O[C@@H]1O[C@H](C)[C@@H](O[C@@H]2O[C@H](CO)[C@@H](O)[C@H](O)[C@H]2O)[C@@H](OC)[C@H]1O (single isomer, unassigned) | 28% | 83% | 32% | 98% | 69% | 30% |
| COC1C[C@H](O[C@@H]2[C@@H](C)O[C@@H](O[C@H]3[C@@H](OC)C[C@H](O[C@H]4CC[C@@]5(C)C(=CC[C@]6(O)[C@@H]5C[C@@H](OC(=O)/C=C/c5ccccc5)[C@@]5(C)[C@]6(O)CC[C@@]5(O)[C@H](C)OC(=O)c5ccccc5)C4)O[C@@H]3C)C[C@H]2OC)O[C@H](C)[C@H]1O[C@@H]1O[C@H](C)[C@@H](O[C@@H]2O[C@H](CO)[C@@H](O)[C@H](O)[C@H]2O)[C@@H](OC)[C@H]1O (single isomer, unassigned) | 3% | 16% | 6% | 16% | 15% | 5% |
| COC1C[C@H](O[C@@H]2[C@@H](C)O[C@@H](O[C@H]3[C@@H](OC)C[C@H](O[C@H]4CC[C@@]5(C)C(=CC[C@]6(O)[C@@H]5C[C@@H](OC(C)=O)[C@@]5(C)[C@]6(O)CC[C@@]5(O)[C@H](C)O)C4)O[C@@H]3C)C[C@H]2OC)O[C@H](C)[C@H]1O[C@@H]1O[C@H](C)[C@@H](O[C@@H]2O[C@H](CO)[C@@H](O)[C@H](O)[C@H]2O)[C@@H](OC)[C@H]1O (single isomer, unassigned) | 18% | 89% | 34% | 98% | 65% | 30% |
| COC1C[C@H](O[C@H]2[C@@H](OC)C[C@H](O[C@H]3[C@@H](OC)C[C@H](O[C@H]4CC[C@@]5(C)C(=CC[C@]6(O)[C@@H]5C[C@@H](OC(=O)/C=C/c5ccccc5)[C@@]5(C)[C@]6(O)CC[C@@]5(O)[C@H](C)O)C4)O[C@@H]3C)O[C@@H]2C)O[C@H](C)[C@H]1O[C@@H]1O[C@H](C)[C@@H](O[C@@H]2O[C@H](CO)[C@@H](O)[C@H](O)[C@H]2O)[C@@H](OC)[C@H]1O (single isomer, unassigned) | 10% | 33% | 33% | 59% | 16% | 18% |

From ChEMBL document CHEMBL1158255, “New polyoxypregnane ester derivatives from Leptadenia hastata” (1996)
